# Activity calls are given as the source filed them.
# Columns and labels:
# [1] = M. tuberculosis H37Rv growth inhibitors, H37Rv strain (AID 1626); type: functional
# [2] = Luminescence Cell-Based Dose Retest to Confirm Inhibitors of Cancer Stem Cells. [Related pubchem assays (depositor defined):AID2717, AID2721]; type: functional; conditions: Homo sapiens
# [3] = system: Streptococcus sp. 'group A'; assay: Streptococcus pyogenes SK(-)GAS viability under kanamycin – luminescence, BacTiterGlo, confirmation, counter-screen for streptokinase expression inhibitor project, dose response (AID 1900); type: functional, organism-based
# Streptokinase A = target: T1, Streptokinase A (Streptococcus pyogenes serotype M1, UniProt P10520); assay: viability-normalized secreted streptokinase activity reduction – plasminogen activation absorbance, OD405, dose response (AID 1914); type: functional, Streptococcus pyogenes M1 GAS;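 also: secreted streptokinase activity via plasminogen activation per viability signal from cell pellet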
# T1 sequence (P10520 whole entry): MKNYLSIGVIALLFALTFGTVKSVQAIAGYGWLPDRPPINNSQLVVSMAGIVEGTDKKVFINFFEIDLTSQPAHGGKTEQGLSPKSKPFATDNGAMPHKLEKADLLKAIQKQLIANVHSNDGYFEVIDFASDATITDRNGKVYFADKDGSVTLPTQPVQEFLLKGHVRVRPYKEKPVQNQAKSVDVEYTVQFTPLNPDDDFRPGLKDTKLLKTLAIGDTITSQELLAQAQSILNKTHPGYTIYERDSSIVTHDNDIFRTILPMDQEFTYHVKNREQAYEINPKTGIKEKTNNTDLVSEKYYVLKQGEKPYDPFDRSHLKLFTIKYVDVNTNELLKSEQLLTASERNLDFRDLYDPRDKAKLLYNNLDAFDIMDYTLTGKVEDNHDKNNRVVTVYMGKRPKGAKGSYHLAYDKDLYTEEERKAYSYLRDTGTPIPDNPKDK
# Streptococcus = assay: GAS UMAA2166 growth inhibition – luminescence, BacTiterGlo, counter-screen for streptokinase expression inhibitor project, dose response (AID 1915); type: functional, organism-based;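 also: potency for reduction of bacterial viability or growth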
# [4] = target: T2, Neuropeptide Y receptor type 1 (Homo sapiens, UniProt P25929); assay: IC50 of human NPY-Y1 blockers – cell-based, dose response (AID 1277); type: functional
# T2 sequence (P25929 whole entry): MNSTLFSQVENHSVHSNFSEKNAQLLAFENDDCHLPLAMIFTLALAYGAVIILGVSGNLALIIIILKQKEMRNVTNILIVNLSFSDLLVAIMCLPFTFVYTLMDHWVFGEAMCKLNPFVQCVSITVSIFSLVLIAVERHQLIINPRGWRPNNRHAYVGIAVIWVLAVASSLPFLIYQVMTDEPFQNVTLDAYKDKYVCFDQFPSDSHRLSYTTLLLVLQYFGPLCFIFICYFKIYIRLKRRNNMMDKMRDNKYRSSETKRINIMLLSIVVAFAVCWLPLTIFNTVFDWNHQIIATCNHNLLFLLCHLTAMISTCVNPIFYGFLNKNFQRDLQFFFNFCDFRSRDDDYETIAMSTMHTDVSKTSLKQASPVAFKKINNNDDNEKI
# [5] = target: T3, Neuropeptide Y receptor type 2 (Homo sapiens, UniProt P49146); assay: IC50 for human NPY-Y2 blockade – cell-based, counter-screen for NPY-Y1 antagonist project, dose response (AID 1278); type: functional
# T3 sequence (P49146 whole entry): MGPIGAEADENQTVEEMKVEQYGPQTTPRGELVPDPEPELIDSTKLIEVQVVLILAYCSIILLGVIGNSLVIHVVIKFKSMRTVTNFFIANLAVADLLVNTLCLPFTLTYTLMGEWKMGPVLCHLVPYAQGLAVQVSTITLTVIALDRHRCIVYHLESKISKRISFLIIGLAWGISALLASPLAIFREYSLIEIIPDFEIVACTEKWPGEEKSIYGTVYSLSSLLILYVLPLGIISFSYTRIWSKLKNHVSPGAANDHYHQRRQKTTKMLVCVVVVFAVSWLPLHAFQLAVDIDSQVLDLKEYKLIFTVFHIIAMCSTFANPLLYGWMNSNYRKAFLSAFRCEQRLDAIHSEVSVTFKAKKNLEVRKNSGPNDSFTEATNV
# Cytochrome P450 1A2 = target: T4, Cytochrome P450 1A2 (Homo sapiens, UniProt P05177);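 also: PubChem cytochrome P450 panel assay, CYP1A2 panel member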
# T4 sequence (P05177 whole entry): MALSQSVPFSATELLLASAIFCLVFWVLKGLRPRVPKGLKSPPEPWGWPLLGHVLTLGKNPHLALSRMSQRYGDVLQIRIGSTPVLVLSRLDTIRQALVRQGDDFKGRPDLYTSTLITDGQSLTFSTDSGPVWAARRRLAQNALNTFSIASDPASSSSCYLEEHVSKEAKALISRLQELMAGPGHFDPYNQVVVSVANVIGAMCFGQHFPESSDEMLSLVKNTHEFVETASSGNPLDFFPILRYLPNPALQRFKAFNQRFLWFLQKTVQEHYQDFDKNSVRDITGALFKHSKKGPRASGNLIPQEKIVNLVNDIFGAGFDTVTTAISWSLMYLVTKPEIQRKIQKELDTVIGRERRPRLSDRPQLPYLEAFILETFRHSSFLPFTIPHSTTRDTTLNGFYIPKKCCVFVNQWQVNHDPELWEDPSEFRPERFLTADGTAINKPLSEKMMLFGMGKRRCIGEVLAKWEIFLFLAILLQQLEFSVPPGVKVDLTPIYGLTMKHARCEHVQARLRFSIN
# [6] = viability loss in HEK293 cells – cell-based, plate reader, cherry-picked samples, cytotoxicity control, dose response (AID 743446); type: functional
# [7] = HPDE-C7 pancreatic duct cell viability loss – fluorescence, HTS (AID 430); type: functional, cell-based; conditions: Homo sapiens
# [8] = A549 cell cytotoxicity, dose response, cytotoxicity control, plate reader, cherry-pick, antagonist series (AID 743412); type: functional, cell-based
# [9] = viability loss of HPDE-C7K cells – cell-based, fluorescence, HTS, primary screen (AID 431); type: functional; conditions: Homo sapiens
# [10] = blockers of bursicon-stimulated LGR2 cAMP reporter – cell-based, HEK293, CRE-luciferase reporter, cherry pick, set 2, dose response (AID 743343); type: functional;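 also: transfected cells were stimulated with diluted bursicon conditioned medium after compound addition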
# [11] = blockade of melanocortin 4 receptor signaling – cell-based, plate reader, cherry pick, counter-screen for LGR2 antagonist project, dose response (AID 743444); type: functional;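 also: transfected HEK 293 cells stimulated with alpha-MSH peptide; potency of inhibitors of the alpha-MSH evoked signal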
# [12] = toxicity toward HepG2 liver cells – cell-based, plate reader, cherry-pick, antagonist series, cytotoxicity control, dose response (AID 743416); type: functional
# [13] = fluconazole-exposed Candida albicans growth modulators – fluorescence, retest, confirmation (AID 2467); type: functional, cell-based
# [14] = NIH-3T3 fibroblast cytotoxicity, dose response, cytotoxicity control, cell-based, fluorescence, Alamar Blue, secondary assay (AID 2327); type: functional;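 also: NIH-3T3 mouse fibroblasts cultured with fluconazole at 8 µg/mL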
# [15] = target: T5, Mannose-6-phosphate isomerase (Homo sapiens, UniProt P34949); assay: MPI enzyme activity inhibition – biochemical, fluorescence intensity, coupled assay, primary screen (AID 1209)
# T5 sequence (P34949 whole entry): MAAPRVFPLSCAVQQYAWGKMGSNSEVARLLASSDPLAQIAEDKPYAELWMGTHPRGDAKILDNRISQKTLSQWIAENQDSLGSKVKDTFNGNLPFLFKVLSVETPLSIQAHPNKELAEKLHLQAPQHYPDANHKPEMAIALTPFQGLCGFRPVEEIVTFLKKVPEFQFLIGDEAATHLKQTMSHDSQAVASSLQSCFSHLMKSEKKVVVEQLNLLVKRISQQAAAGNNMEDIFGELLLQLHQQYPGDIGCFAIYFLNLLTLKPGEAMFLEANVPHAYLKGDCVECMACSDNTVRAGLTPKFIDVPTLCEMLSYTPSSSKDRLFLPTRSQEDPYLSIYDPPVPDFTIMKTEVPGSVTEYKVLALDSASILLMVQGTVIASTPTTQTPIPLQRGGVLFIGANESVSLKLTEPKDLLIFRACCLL
# Leucine aminopeptidase = target: T6, Leucine aminopeptidase (Plasmodium falciparum 3D7, UniProt Q8IL11); assay: P. falciparum M17LAP inhibitors, primary screen, biochemical, fluorogenic H-Leu-NHMec substrate, 1536-well (AID 1619); type: functional
# T6 sequence (Q8IL11 whole entry): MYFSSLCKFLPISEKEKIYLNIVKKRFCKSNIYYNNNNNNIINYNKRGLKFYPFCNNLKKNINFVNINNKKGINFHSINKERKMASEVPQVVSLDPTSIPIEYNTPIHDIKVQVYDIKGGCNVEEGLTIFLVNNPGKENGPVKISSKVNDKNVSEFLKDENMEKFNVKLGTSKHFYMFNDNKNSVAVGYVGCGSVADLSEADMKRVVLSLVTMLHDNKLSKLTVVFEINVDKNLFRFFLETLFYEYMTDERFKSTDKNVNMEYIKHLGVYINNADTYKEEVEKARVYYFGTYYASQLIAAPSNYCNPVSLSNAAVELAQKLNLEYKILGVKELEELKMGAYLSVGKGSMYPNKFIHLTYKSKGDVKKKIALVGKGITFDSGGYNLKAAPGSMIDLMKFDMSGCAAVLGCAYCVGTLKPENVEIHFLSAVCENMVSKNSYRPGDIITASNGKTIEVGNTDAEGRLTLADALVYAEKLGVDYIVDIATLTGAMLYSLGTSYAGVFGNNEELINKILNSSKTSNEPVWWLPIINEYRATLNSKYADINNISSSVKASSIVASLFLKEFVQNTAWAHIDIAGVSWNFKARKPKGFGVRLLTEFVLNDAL
# [16] = target: Luciferin 4-monooxygenase (Photinus pyralis, UniProt P08659); assay: Counter Screen for Luciferase-based Assay Positives. [Related pubchem assays: 620, 618, 411 ]
# Sequence of Luciferin 4-monooxygenase (P08659 whole entry): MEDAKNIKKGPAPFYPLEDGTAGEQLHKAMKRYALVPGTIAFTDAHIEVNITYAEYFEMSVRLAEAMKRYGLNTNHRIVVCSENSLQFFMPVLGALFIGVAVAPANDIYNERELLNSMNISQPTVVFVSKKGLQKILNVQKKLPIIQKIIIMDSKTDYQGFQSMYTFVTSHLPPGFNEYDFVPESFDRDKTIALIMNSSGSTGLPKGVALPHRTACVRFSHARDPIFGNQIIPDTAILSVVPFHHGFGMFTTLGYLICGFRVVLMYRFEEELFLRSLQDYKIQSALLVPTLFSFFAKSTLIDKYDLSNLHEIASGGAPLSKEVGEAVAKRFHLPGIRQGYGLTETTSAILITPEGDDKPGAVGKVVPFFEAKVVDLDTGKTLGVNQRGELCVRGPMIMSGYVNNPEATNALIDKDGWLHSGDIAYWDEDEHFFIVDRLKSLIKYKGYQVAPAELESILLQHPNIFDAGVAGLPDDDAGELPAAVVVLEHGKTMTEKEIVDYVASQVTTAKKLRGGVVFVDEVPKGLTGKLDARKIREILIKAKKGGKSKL
# HT-1080 = assay: HT1080 cell viability loss – fluorescence readout (AID 620); type: functional, cell-based; conditions: Homo sapiens
# Cytochrome P450 2C19 = Cytochrome P450 2C19 (Homo sapiens, UniProt P33261); assay: Cytochrome panel assay with activity outcomes. Panel member name: p450-cyp2c19 Compounds with AC50 equal or less than 10 uM are considered active; type: functional; conditions: read-out: AC50
# Sequence of Cytochrome P450 2C19 (P33261 whole entry): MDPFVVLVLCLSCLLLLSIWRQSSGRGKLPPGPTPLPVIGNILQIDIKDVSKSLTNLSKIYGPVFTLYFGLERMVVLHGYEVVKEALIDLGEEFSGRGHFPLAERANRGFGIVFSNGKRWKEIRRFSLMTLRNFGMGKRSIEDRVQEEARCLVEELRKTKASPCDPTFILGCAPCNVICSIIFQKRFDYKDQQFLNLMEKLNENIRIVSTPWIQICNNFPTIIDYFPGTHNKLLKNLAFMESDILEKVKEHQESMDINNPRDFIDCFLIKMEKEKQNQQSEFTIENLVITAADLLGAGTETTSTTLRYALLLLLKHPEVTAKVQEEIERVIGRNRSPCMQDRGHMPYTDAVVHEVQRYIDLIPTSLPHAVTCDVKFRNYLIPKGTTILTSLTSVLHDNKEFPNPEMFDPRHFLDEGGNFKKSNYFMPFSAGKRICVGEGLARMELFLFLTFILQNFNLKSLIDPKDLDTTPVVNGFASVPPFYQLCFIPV
# [17] = target: T7, Dual specificity protein phosphatase 6 (Rattus norvegicus, UniProt Q64346); assay: inhibition of rat DUSP6 enzyme activity – biochemical, in vitro, primary screen (AID 425)
# T7 sequence (Q64346 whole entry): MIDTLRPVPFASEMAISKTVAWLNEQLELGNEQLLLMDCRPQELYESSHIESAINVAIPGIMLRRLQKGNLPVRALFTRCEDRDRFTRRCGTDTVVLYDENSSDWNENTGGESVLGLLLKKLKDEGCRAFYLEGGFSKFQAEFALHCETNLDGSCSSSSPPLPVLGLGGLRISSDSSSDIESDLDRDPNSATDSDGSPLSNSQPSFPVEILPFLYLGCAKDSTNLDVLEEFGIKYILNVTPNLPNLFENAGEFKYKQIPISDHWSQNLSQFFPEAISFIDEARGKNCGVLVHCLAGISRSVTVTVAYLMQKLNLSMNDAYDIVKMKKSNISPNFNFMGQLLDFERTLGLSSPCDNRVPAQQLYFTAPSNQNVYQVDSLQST
# [18] = target: T5, Mannose-6-phosphate isomerase; assay: MPI inhibition at elevated mannose 6-phosphate – biochemical, fluorescence intensity, high mannose 6-phosphate, primary screen (AID 1220)
compound,measurement,setting,value
c1ccc(-c2cc3c(NCC4COc5ccccc5O4)ncnc3s2)cc1 (centres undefined),IC50,[1],> 100 µM (active)
same,AC50,[2],3.96 µM (active)
same,EC50,[3],3 µM (active)
same,EC50,Streptokinase A,3.29 µM (active)
same,EC50,Streptococcus,21.7 µM (active)
COc1ccc([N+](=O)[O-])cc1N(CC(O)CN(CC(C)C)CC(C)C)S(=O)(=O)c1ccccc1 (centres undefined),IC50,[4],> 35 µM (not active)
same,IC50,[5],> 35 µM (not active)
same,AC50,Cytochrome P450 1A2,11.2 µM (inconclusive)
O=S(=O)(CCSc1nc2ccccc2o1)c1nc2ccccc2s1,AC50,[6],6.8 µM (active)
same,EC50,[7],4.88 µM (active)
same,AC50,[8],44.4 µM (active)
same,EC50,[9],5.33 µM (active)
same,AC50,[10],2.43 µM (active)
same,AC50,[11],1.8 µM (active)
same,AC50,[12],5.74 µM (active)
Cc1cc2cc(C)c(NCCNC(=O)c3cccc(F)c3)nc2cc1C,IC50,[4],3.39 µM (active)
same,IC50,[5],4.44 µM (active)
Cc1cc(=O)oc2ccc(OC(=O)CC(C)C)cc12,IC50,[1],> 100 µM (active)
N=C1/C(=C\c2ccc(SCc3ccccc3)o2)C(=O)N=C2SC=NN12,EC50,[13],5.72 µM (active)
same,EC50,[14],> 150 µM (inactive)
same,IC50,[15],> 50 µM (not active)
COc1ccc(NC2(C#N)CCCCC2)cc1,IC50,[1],> 100 µM (active)
COc1ccc(N2CCN(C(c3cccc(OC)c3OC)c3nnnn3C3CCCC3)CC2)cc1 (centres undefined),IC50,[4],> 35 µM (not active)
same,IC50,[5],> 35 µM (not active)
O=C1CC(c2ccc3c(c2)OCO3)c2cc3c(cc2N1)OCCO3 (centres undefined),EC50,[7],> 20 µM (not active)
same,EC50,[9],> 20 µM (not active)
Cc1sc(NC(=O)C2C3C=CC(C3)C2C(=O)O)c(C(N)=O)c1-c1ccc(C(C)C)cc1 (centres undefined),IC50,Leucine aminopeptidase,4.99 µM (active)
same,EC50,[3],32.1 µM (active)
same,EC50,Streptokinase A,32.2 µM (active)
same,EC50,Streptococcus,> 150 µM (not active)
COC(=O)c1ccc(-c2nc(-c3cccs3)no2)cc1,EC50,[16],760 nM (active)
same,EC50,HT-1080,> 50 µM (not active)
COC(=O)c1ccc(NC(=O)C2CCCCC2C(=O)O)cc1 (centres undefined),AC50,Cytochrome P450 2C19,39.8 nM (inconclusive)
same,IC50,Leucine aminopeptidase,13.5 µM (active)
O=C(CN(Cc1ccco1)C(=O)CNS(=O)(=O)c1ccc(F)cc1)NCCc1ccccc1,IC50,[17],> 100 µM (not active)
O=C(c1cc(-c2cccc(O)c2)on1)N1CCCCC1,EC50,[16],640 nM (active)
same,EC50,HT-1080,> 50 µM (not active)
COc1ccc2c(c1)C(C)=CC(C)(C)N2C(=O)Nc1ccccc1,IC50,[18],> 50 µM (not active)
same,IC50,[15],> 50 µM (not active)

# From ChEMBL document CHEMBL1201862, “PubChem BioAssay data set” (2004)
